Laboratory results published in the NIST ThermoML archive (doi:10.1016/j.jct.2018.12.006).

Conditions: 101.33 kPa, Crystal; for molar entropy: Small (less than 1 g) adiabatic calorimetry; for mass density: X-ray diffraction

C[N+](C)(C)C[C@H](O)CC(=O)[O-] [(R)-3-hydroxy-4-(trimethylammonio)butanoate]
Conditions	mass density [kg/m3]	molar entropy [J/K/mol]
5 K	–	0.0967
10 K	–	0.77
15 K	–	2.46
20 K	–	5.34
25 K	–	8.973
30 K	–	13
35 K	–	17.28
40 K	–	21.73
45 K	–	26.33
50 K	–	31.04
60 K	–	40.65
70 K	–	50.3
80 K	–	59.86
90 K	–	69.27
100 K	–	78.52
110 K	–	87.63
120 K	–	96.63
130 K	–	105.5
140 K	–	114.3
150 K	1256	122.9
160 K	–	131.4
170 K	–	139.9
175 K	1250	–
180 K	–	148.2
190 K	–	156.4
200 K	1253	164.5
210 K	–	172.5
220 K	–	180.3
225 K	1247	–
230 K	–	188.1
240 K	–	195.9
250 K	1247	203.6
260 K	–	211.2
270 K	–	218.8
273.15 K	–	221.2
275 K	1250	–
280 K	–	226.4
290 K	–	233.9
298.15 K	–	240.1
300 K	1245	241.5
310 K	–	249
320 K	–	256.5
325 K	1236	–
330 K	–	264
340 K	–	271.5
350 K	1239	279
375 K	1242	–
400 K	1236	–
425 K	1236	–
